Results reported in patent EP0423032A2, “Process for the preparation of isoxazolyl and isothiazolyl imidazobenzodiazepines, new derivatives thus obtained, their use as medicaments and compositions containing them” (ROUSSEL-UCLAF, priority 1989, dated 1991).

Tested on: récepteurs des benzodiazépines
Assay: In vivo measurement of binding to benzodiazepine receptors, method of Goeders and Kuhar
Text: La mesure in vivo de la liaison aux récepteurs des benzodiazépines a été effectuée selon la méthode décrite par Goeders N.E. et Kuhar M.J. Life, Sciences (1985) 37, 345. TABLEAU II

Compound	liaison in vivo DE 50 mg/kg IP
CN1Cc2c(-c3cc(C4CC4)no3)ncn2-c2ccccc2C1=O [Exemple 5, 3-(3-cyclopropylisoxazol-5-yl) 5,6-dihydro 5-méthyl 6-oxo-4H-imidazo [1,5-a] [1,4]-benzodiazépine]	2,0 mg/kg
Cc1cc(-c2ncn3c2CN(C)C(=O)c2ccccc2-3)on1 [Exemple 7, 5,6-dihydro 5-méthyl 6-oxo 3-(3-méthylisoxazol-5-yl) 4H-imidazo [1,5-a] [1,4]-benzodiazépine]	0,62 mg/kg
CCc1cc(-c2ncn3c2CN(C)C(=O)c2ccccc2-3)on1 [Exemple 8, 5,6-dihydro 5-méthyl 6-oxo 3-(3-éthylisoxazol-5-yl) 4H-imidazo [1,5-a] [1,4]-benzodiazépine]	> 3,0 mg/kg
